Laboratory results: patent US5573908A, “Adrenergic receptor as a proto-oncogene” (Duke University, priority 1993, dated 1996)
Substitutions are numbered along the chain they refer to. Values joined by “and” are separate entries in the source; they are usually repeats but may differ in a detail not shown here. Identical values can stand only once. “Also recorded” adds a separate entry of the source. Like-named read-outs stand apart in the source and are kept apart here.

Tests used:
[1] = target: T1, α1B ADR (Mesocricetus auratus, UniProt P18841); experiment: Ligand binding on membranes of RAT-1 fibroblast cell lines expressing the α1B ADR; set-up: species or system hamster; settings: two clones
T1 construct: expressed in transfected cells; host or cells: RAT-1 fibroblasts (vector pZIP-NeoSV(X)1), focus-derived, G418-selected lines
T1 sequence (P18841 1-515): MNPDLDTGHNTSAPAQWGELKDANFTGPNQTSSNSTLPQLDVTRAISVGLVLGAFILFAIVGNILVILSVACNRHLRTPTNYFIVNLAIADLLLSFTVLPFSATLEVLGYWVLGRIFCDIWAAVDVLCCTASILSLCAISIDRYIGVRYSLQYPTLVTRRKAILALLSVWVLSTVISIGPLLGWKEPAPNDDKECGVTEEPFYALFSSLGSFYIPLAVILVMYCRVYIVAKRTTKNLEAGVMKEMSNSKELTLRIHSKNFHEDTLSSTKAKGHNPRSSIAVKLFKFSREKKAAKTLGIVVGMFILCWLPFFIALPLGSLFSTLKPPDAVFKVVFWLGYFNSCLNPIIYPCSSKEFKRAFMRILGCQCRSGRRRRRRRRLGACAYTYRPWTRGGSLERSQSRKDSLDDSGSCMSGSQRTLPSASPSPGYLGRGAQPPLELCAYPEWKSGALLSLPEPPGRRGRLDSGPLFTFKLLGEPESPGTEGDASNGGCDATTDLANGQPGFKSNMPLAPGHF
Method: (§1) In Table 3, RAT-1 fibroblast cell lines transfected with expression vector alone or derived from transformed foci (α1B ADR or α1B ADR mutant) were selected with G418 (300 μg/ml). Ligand binding was performed on membranes prepared from two clones of each in accordance with known techniques (S. Cotecchia et al., Life Sci. 37, 2389 (1986)). For saturation binding analysis, [^125 ] HEAT concentrations ranged from 10 to 500 pM, nonspecific binding was determined using 1 μM prazosin; in competition experiments, the radioligand concentration was 100 pM. Ligand binding parameters were determined using computerized iterative nonlinear regression analysis (P. Munson, Methods in Enzymol. 92, 5432 (1983)). For assessment of receptor coupling to PI hydrolysis, cells were plated in 30 mm dishes, and labeled overnight with 3 μCi/ml of myo-[2-^3 II(N)]-inositol (1Ci=37 GBq; NEN Research Products) in DMEM containing 3.3% FBS in accordance with known techniques (S. Cotecchia et al., Proc. Natl. Acad. Sci. USA 87, 2896 (1990)). After 40 minute stimulation of cells with 10 μM norepinephrine (NE), inositol phosphates were extracted, and separated on AG 1-X8 anion exchange columns (BioRad Labs) in accordance with known techniques (S. Cotecchia et al., Proc. Natl. Acad. Sci. USA 87, 2896 (1990)). Total inositol phosphates were eluted with 1M ammonium formate/0.1M formic acid. Rmax indicates the percentage increase of total labeled inositol phosphates over basal levels following NE stimulation.

[2] = target: T2, α1B ADR mutant (Mesocricetus auratus, UniProt P18841, A293L/K290H/R288K); experiment: Ligand binding on membranes of RAT-1 fibroblast cell lines expressing the α1B ADR mutant; set-up: species or system hamster; settings: two clones
T2 construct: expressed in transfected cells; host or cells: RAT-1 fibroblasts (vector pZIP-NeoSV(X)1), focus-derived, G418-selected lines
T2 sequence (P18841 1-515 R288K/K290H/A293L): T1 sequence (P18841 1-515) with R288K, K290H, A293L
Method: as §1

[3] = system: α1B -ADR
Method: To quantitate receptor-mediated effects on mitogenesis, basal and NE-stimulated growth rates were assessed on cell lines expressing the wild type or mutant α1B -ADRs.

[4] = system: RAT-1 fibroblast cell line derived from a single transformed focus expressing the α1B -ADR; experiment: Morphology of focus-derived RAT-1 fibroblast cell line expressing the α1B-ADR; assay type: cell-based; settings: 10 μM NE and 1 μM prazosin, 36 hours
[5] = system: RAT-1 fibroblasts transfected with α1B -ADR c-DNA; experiment: Focus formation in RAT-1 fibroblasts transfected with α1B-ADR c-DNA; assay type: cell-based; settings: focus-derived RAT-1 cell lines; data not shown
Method: Transfection was carried out as follows: RAT-1 fibroblasts were seeded at a density of 2×10^5 cells in Dulbecco's modified Eagle's medium (DMEM) (Gibco) containing 5% fetal bovine serum (FBS) in 100 mm dishes. […] After 16 hours, the DNA precipitate was removed, the cells washed and grown for 24 hours in complete medium. Cells were split 1:5, allowed to attach overnight and then cultured in DMEM with 5% FBS alone, supplemented with 10 μM norepinephrine (NE) or G418 (300 μg/ml). Dishes were supplemented with NE daily, and fed every 3 days with fresh medium.

[6] = saturation binding 10 to 500 pM, nonspecific binding with 1 μM prazosin, read-out: [125I] HEAT Kd
[7] = serum free medium, data not shown

O=C1c2ccccc2CCC1CNCCc1ccc(O)c([125I])c1 (stereo not shown) [[^125 I] HEAT, 2{b-(4-hydroxy-3-[^125 I]iodophenyl)ethylaminomethyl}-tetralone]
Kd [1, 6]: 0.0441 nM and 0.0383 nM
[125I] HEAT Bmax ([1]; saturation binding): 5.1 pmol/mg and 2.7 pmol/mg
Kd [2, 6]: 0.0379 nM and 0.0463 nM
[125I] HEAT Bmax ([2]; saturation binding): 2.2 pmol/mg and 2.6 pmol/mg

c1ccc2c(c1)OCC(C1=NCCN1)O2 (stereo not shown) [idazoxan]
blockade of NE-induced increase in DNA synthetic activity [3, 7]: not

COc1cc2nc(N3CCN(C(=O)c4ccco4)CC3)nc(N)c2cc1OC [prazosin]
effect of concurrent antagonist on agonist-induced transformation (morphology) [4]: blocked agonist-induced transformation; also recorded: reverted the cells to the untransformed phenotype
blockade of NE-induced increase in DNA synthetic activity [3]: could be blocked
inhibition of agonist-dependent focus formation by concurrent antagonist [5]: could be inhibited

CC(C)NCC(O)COc1cccc2ccccc12 (stereo not shown) [propranolol]
blockade of NE-induced increase in DNA synthetic activity [3, 7]: not

COC(=O)[C@@H]1[C@H]2C[C@H]3c4[nH]c5ccccc5c4CCN3C[C@@H]2CC[C@@H]1O [yohimbine]
blockade of NE-induced increase in DNA synthetic activity [3]: not
